Experimental findings from patent US8987195B2 (priority 2012, dated 2015) are described below.

For experiment [1], the system named is HCV genotype 1b replicon. The experiment can be described thus: HCV replicon assay, genotype 1b replicon EC50. It is filed as cell-based, Hepatitis C virus. Conditions: Hepatitis C virus, genotype 1b replicon, read-out: EC50 [gt-1b]. In a few lines:
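Stable neomycin-selected genotype 1b replicon cells, some carrying luciferase:Neo^r fusion, plated without G418 with a compound dilution series and incubated 24-48 h. Read-out was RNA (^32P-probe protection or TaqMan, normalized to cyclophilin A) or luciferase activity. EC50 from four-parameter fit as percent of DMSO control.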

The target of experiment [2] is HCV NS3/4A protease genotype 1b (Hepatitis C virus genotype 1b, UniProt P26663). The experiment is described as follows: HCV NS3/4A protease time-resolved fluorescence (TRF) assay, Ki against genotype 1b. The class given is biochemical. The note with it: IC50 [gt-1b] (nM), NS3/4A genotype 1b, enzyme 0.2 nM. In a few lines:
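Enzyme 0.2 nM 1b / 0.4 nM A156T / 0.025 nM 3a; 30 min preinc. w/ cpd; 25 nM TRF peptide; 2.5 h RT; ex 340/em 615 time-delayed; 4-param IC50 → Ki = IC50/(1+[S]/KM).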

Like-named read-outs stand apart in the source and are kept apart here.

Turning to `CC(C)C1(OC(=O)N[C@H]2CCCCC/C=C\[C@@H]3C[C@@]3(C(=O)NS(=O)(=O)C3(C)CC3)NC(=O)[C@@H]3C[C@]4(CCc5c(c(C(F)(F)F)nc6ccccc56)O4)CN3C2=O)CC1` [Example 158, 1-(propan-2-yl)cyclopropyl [(2R,6S,12Z,13aS,14aR,16aS)-14a-{[(1-methylcyclopropyl)sulfonyl]carbamoyl}-5,16-dioxo-5′-(trifluoromethyl)-1,1′,2′,5,6,7,8,9,10,11,13a,14,14a,15,16,16a-hexadecahydrospiro[cyclopropa[e]pyrrolo[1,2-a][1,4]diazacyclopentadecine-2,3′-pyrano[2,3-c]quinolin]-6-yl]carbamate], the EC50 (as a rule, the concentration at which the effect is half-maximal) in experiment [1] is 1.17 nM. Moreover, the IC50 – broadly, the concentration at which inhibition is half-maximal – in experiment [2] amounted to 0.02 nM.
Regarding `CC1(OC(=O)N[C@H]2CCCCC/C=C\[C@@H]3C[C@@]3(C(=O)NS(=O)(=O)C3(C)CC3)NC(=O)[C@@H]3C[C@]4(CCc5c(c(C(F)(F)F)nc6ccccc56)O4)CN3C2=O)CC1` [Example 159, 1-methylcyclopropyl [(2R,6S,12Z,13aS,14aR,16aS)-14a-{[(1-methylcyclopropyl)sulfonyl]carbamoyl}-5,16-dioxo-5′-(trifluoromethyl)-1,1′,2′,5,6,7,8,9,10,11,13a,14,14a,15,16,16a-hexadecahydrospiro[cyclopropa[e]pyrrolo[1,2-a][1,4]diazacyclopentadecine-2,3′-pyrano[2,3-c]quinolin]-6-yl]carbamate], the EC50 in experiment [1] is 1.19 nM. Also, the IC50 in experiment [2] is 0.013 nM.
For the compound `CC(C)COC(=O)N[C@H]1CCCCC/C=C\[C@@H]2C[C@@]2(C(=O)NS(=O)(=O)C2(C)CC2)NC(=O)[C@@H]2C[C@]3(CCc4c(c(C(F)(F)F)nc5ccccc45)O3)CN2C1=O` [Example 160, 2-methylpropyl [(2R,6S,12Z,13aS,14aR,16aS)-14a-{[(1-methylcyclopropyl)sulfonyl]carbamoyl}-5,16-dioxo-5′-(trifluoromethyl)-1,1′,2′,5,6,7,8,9,10,11,13a,14,14a,15,16,16a-hexadecahydrospiro[cyclopropa[e]pyrrolo[1,2-a][1,4]diazacyclopentadecine-2,3′-pyrano[2,3-c]quinolin]-6-yl]carbamate], the EC50 in experiment [1] (K+ salt) is 1.82 nM. Also, the IC50 in experiment [2] (K+ salt) worked out at 0.026 nM.
As to `Cc1nc2ccccc2c2c1O[C@]1(CC2)C[C@H]2C(=O)N[C@]3(C(=O)CS(=O)(=O)C4(C)CC4)C[C@H]3/C=C\CCCCC[C@H](NCCC3CCCC3)C(=O)N2C1` [Example 161], in experiment [1] (GETYPE1B|GT1B), the EC50 was found to be 3.02 nM. Besides, the IC50 in experiment [2] was determined as 0.138 nM.
In the case of `Cc1nc2ccccc2c2c1O[C@]1(CC2)C[C@H]2C(=O)N[C@]3(C(=O)NS(=O)(=O)C4(C)CC4)C[C@H]3/C=C\CCCCC[C@H](N(CCC3CCCC3)CCC3CCCC3)C(=O)N2C1` [Example 162, (2R,6S,12Z,13aS,14aR,16aS)-6-[bis(2-cyclopentylethyl)amino]-5′-methyl-N-[(1-methylcyclopropyl)sulfonyl]-5,16-dioxo-1,1′,2′,6,7,8,9,10,11,13a,14,15,16,16a-tetradecahydrospiro[cyclopropa[e]pyrrolo[1,2-a][1,4]diazacyclopentadecine-2,3′-pyrano[2,3-c]quinoline]-14a(5H)-carboxamide], the 50% effective concentration (EC50) in experiment [1] is 72 nM. The compound also displayed an IC50 in experiment [2] of 6.38 nM.
For the compound `Cc1nc2ccccc2c2c1O[C@]1(CC2)C[C@H]2C(=O)N[C@]3(C(=O)NS(=O)(=O)C4(C)CC4)C[C@H]3/C=C\CCCCC[C@H](N(CCC(C)(C)C)CCC(C)(C)C)C(=O)N2C1` [Example 163, (2R,6S,12Z,13aS,14aR,16aS)-6-[bis(3,3-dimethylbutyl)amino]-5′-methyl-N-[(1-methylcyclopropyl)sulfonyl]-5,16-dioxo-1,1′,2′,6,7,8,9,10,11,13a,14,15,16,16a-tetradecahydrospiro[cyclopropa[e]pyrrolo[1,2-a][1,4]diazacyclopentadecine-2,3′-pyrano[2,3-c]quinoline]-14a(5H)-carboxamide], the EC50 in experiment [1] was above 100 nM. Moreover, 6.21 nM corresponded to half-maximal inhibition in experiment [2] (IC50).
In the case of `Cc1nc2ccccc2c2c1O[C@]1(CC2)C[C@H]2C(=O)N[C@]3(C(=O)NS(=O)(=O)C4(C)CC4)C[C@H]3/C=C\CCCCC[C@H](NCCC(C)(C)C)C(=O)N2C1` [Example 164, (2R,6S,12Z,13aS,14aR,16aS)-6-[(3,3-dimethylbutyl)amino]-5′-methyl-N-[(1-methylcyclopropyl)sulfonyl]-5,16-dioxo-1,1′,2′,6,7,8,9,10,11,13a,14,15,16,16a-tetradecahydrospiro[cyclopropa[e]pyrrolo[1,2-a][1,4]diazacyclopentadecine-2,3′-pyrano[2,3-c]quinoline]-14a(5H)-carboxamide], the EC50 in experiment [1] turned out to be 2.71 nM. Besides, in experiment [2], the IC50 amounted to 0.132 nM.
Turning to `COc1ccc2nc(C(C)C)c3c(c2c1)CC[C@]1(C[C@H]2C(=O)N[C@]4(C(=O)NS(=O)(=O)C5(C)CC5)C[C@H]4/C=C\CCCCC[C@H](NC(=O)OC4(C)CC4)C(=O)N2C1)O3` [Example 165, 1-methylcyclopropyl [(2R,6S,12Z,13aS,14aR,16aS)-9′-methoxy-14a-{[(1-methylcyclopropyl)sulfonyl]carbamoyl}-5,16-dioxo-5′-(propan-2-yl)-1,1′,2′,5,6,7,8,9,10,11,13a,14,14a,15,16,16a-hexadecahydrospiro[cyclopropa[e]pyrrolo[1,2-a][1,4]diazacyclopentadecine-2,3′-pyrano[2,3-c]quinolin]-6-yl]carbamate], the EC50 in experiment [1] amounted to 1.39 nM. Also, it took 0.005 nM to reach half-maximal inhibition in experiment [2] (IC50).
Take `CC1(S(=O)(=O)NC(=O)[C@@]23C[C@H]2/C=C\CCCCC[C@H](NC(=O)OC2CCCCC2)C(=O)N2C[C@@]4(CCc5c(c(C6CC6)nc6c(F)cccc56)O4)C[C@H]2C(=O)N3)CC1` [Example 166, cyclohexyl [(2R,6S,12Z,13aS,14aR,16aS)-5′-cyclopropyl-7′-fluoro-14a-{[(1-methylcyclopropyl)sulfonyl]carbamoyl}-5,16-dioxo-1,1′,2′,5,6,7,8,9,10,11,13a,14,14a,15,16,16a-hexadecahydrospiro[cyclopropa[e]pyrrolo[1,2-a][1,4]diazacyclopentadecine-2,3′-pyrano[2,3-c]quinolin]-6-yl]carbamate]: the EC50 in experiment [1] was 2.4 nM. The compound also had an IC50 in experiment [2] of 0.019 nM.
Regarding `CC(C)C1(OC(=O)N[C@H]2CCCCC/C=C\[C@@H]3C[C@@]3(C(=O)NS(=O)(=O)C3(C)CC3)NC(=O)[C@@H]3C[C@]4(CCc5c(c(C6CC6)nc6c(F)cccc56)O4)CN3C2=O)CC1` [Example 167, 1-(propan-2-yl)cyclopropyl [(2R,6S,12Z,13aS,14aR,16aS)-5′-cyclopropyl-7′-fluoro-14a-{[(1-methylcyclopropyl)sulfonyl]carbamoyl}-5,16-dioxo-1,1′,2′,5,6,7,8,9,10,11,13a,14,14a,15,16,16a-hexadecahydrospiro[cyclopropa[e]pyrrolo[1,2-a][1,4]diazacyclopentadecine-2,3′-pyrano[2,3-c]quinolin]-6-yl]carbamate], the EC50 in experiment [1] came out at 1.88 nM. For the same compound, the IC50 in experiment [2] is 0.02 nM.
